The assay has as its target human PCSK9 / human LDLR EGFa domain interaction (Homo sapiens (Human), UniProt Q8NBP7). The experiment in a line: TR-FRET assay of inhibition of the PCSK9-LDLR protein-protein interaction. The format is binding. To be noted: TR-FRET, 20 nM human PCSK9, 20 nM human LDLR EGFa domain, 2 hours room temperature; read-out: IC50. On the procedure:
A time-resolved fluorescence resonance energy (TR-FRET) assay was used to measure inhibition of the PCSK9-LDLR protein-protein interaction. Briefly, 20 nM avitag-biotinylated human PCSK9 was incubated with 20 nM his-tagged human LDLR EGFa domain in the presence of 5 nM LANCE Ulight Streptavidin (Perkin Elmer) and 5 nM europium-Anti-6×His (Perkin Elmer) for 2 hours covered at room temperature in buffer containing 50 mM HEPES, 150 mM NaCl, 5 mM CaCl2), 0.01% BSA and 0.01% Surfactant P20. Compounds were tested in dose-response and concentrations giving half-maximal inhibition calculated using a 4-parameter fit equation.
(In general: In TR-FRET formats the signal depends on donor and acceptor labels being close together.)

Starred links: 1 amine or outer side, 2 acyl side, 3 side chain; linkers in the order of their positions; H or OH if unused. Positions of bridges follow the written chain, without caps; N, C: chain ends. Non-standard residues stand in square brackets, D forms with d. Residues, ends and D or L forms follow the SMILES beside them. Groups on a side chain read outwards from the residue. *: point of attachment. Pro(3R,4S-CMe2) = CC1(C)[C@@H]2[C@@H](C(=O)O)NC[C@@H]21; Ala(benzothiazol-2-yl) = N[C@@H](Cc1nc2ccccc2s1)C(=O)O; X25 = O=C([C@H](Cc1cccc(OCC=[*:3])c1)N[*:1])[*:2]; NMeTrp(1-Me) = CN[C@@H](Cc1cn(C)c2ccccc12)C(=O)O; Pro(4R-Bn) = O=C(O)[C@@H]1C[C@@H](Cc2ccccc2)CN1; Trp(5-F) = N[C@@H](Cc1c[nH]c2ccc(F)cc12)C(=O)O; Trp(7-aza) = N[C@@H](Cc1c[nH]c2ncccc12)C(=O)O; NMePhe(4-F) = CN[C@@H](Cc1ccc(F)cc1)C(=O)O; X3 = O=C(CCSCc1cc(F)cc(CSCCN[*:1])c1)[*:2]; X42 = CN([C@@H](CCC=[*:3])C(=O)[*:2])[*:1]; NMeW = CN[C@@H](Cc1c[nH]c2ccccc12)C(=O)O; X4 = O=C(CCSCc1cccc(CSCCN[*:1])c1)[*:2]; γGlu = O=C(O)[C@H](CCC(=O)[*:2])N[*:1]; mXylylene = c1cc(C[*:1])cc(C[*:2])c1; NMeY = CN[C@@H](Cc1ccc(O)cc1)C(=O)O; Palmitoyl = CCCCCCCCCCCCCCCC(=O)*; X35 = COc1cc(C[*:1])cc(C[*:2])c1; hPhe = N[C@@H](CCc1ccccc1)C(=O)O; NMeD = CN[C@@H](CC(=O)O)C(=O)O; αMeK = C[C@](N)(CCCCN)C(=O)O; αMeP = C[C@@]1(C(=O)O)CCCN1; Aze = O=C(O)[C@@H]1CCN1; Nva = CCC[C@H](N)C(=O)O; Aib = CC(C)(N)C(=O)O; Mpa = O=C(O)CCS; Sar = CNCC(=O)O

human PCSK9 / human LDLR EGFa domain interaction, sequence (Q8NBP7 153-692): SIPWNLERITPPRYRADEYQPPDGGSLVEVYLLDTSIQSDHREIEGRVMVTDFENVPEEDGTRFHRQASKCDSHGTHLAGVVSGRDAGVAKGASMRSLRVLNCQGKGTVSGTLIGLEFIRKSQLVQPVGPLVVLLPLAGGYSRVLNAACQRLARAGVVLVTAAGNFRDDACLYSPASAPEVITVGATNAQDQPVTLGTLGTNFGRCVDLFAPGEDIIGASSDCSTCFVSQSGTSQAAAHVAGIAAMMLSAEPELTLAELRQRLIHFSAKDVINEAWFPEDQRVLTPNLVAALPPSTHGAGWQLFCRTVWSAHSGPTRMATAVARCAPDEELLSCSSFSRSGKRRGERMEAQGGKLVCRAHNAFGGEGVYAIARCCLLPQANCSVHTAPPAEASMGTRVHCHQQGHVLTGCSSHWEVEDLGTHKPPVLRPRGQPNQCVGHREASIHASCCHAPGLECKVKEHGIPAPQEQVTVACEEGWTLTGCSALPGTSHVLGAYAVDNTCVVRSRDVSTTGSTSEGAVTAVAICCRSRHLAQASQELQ
human PCSK9 / human LDLR EGFa domain interaction, sequence (Q8NBP7 31-152 partner): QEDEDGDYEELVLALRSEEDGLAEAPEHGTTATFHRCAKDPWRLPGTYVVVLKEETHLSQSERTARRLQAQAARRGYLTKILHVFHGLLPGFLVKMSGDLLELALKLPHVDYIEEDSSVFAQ

What is called IC50 is the concentration that inhibits the measured activity by half. With `NCCCC[C@@H]1NC(=O)CCSCc2cccc(c2)CSC[C@@H](C(N)=O)NC(=O)[C@@H]2CCCN2C(=O)[C@H](Cc2nc3ccccc3s2)NC(=O)[C@H](Cc2c[nH]cn2)NC(=O)[C@H](CC(=O)O)NC(=O)[C@H](Cc2c[nH]c3ccc(F)cc23)NC(=O)[C@H](Cc2c[nH]c3ccc(F)cc23)NC(=O)CNC1=O` [Compound 266] ([Mpa]KG[Trp(5-F)][Trp(5-F)]DH[Ala(benzothiazol-2-yl)]PC-NH2; linker 1-10 via mXylylene), the IC50 fell in the range of 21000 to 50000 nM. Next, `CC1(C)NC(=O)[C@H](Cc2ccc(O)cc2)NC(=O)[C@H](Cc2cnc[nH]2)NC(=O)[C@H](CC(=O)O)NC(=O)[C@H](Cc2c[nH]c3ccc(F)cc23)NC(=O)[C@H](Cc2c[nH]c3ccc(F)cc23)NC(=O)CNC(=O)[C@H](CCCCN)NC(=O)CCSCc2cccc(c2)CSC[C@@H](C(N)=O)NC1=O` [Compound 218] ([Mpa]KG[Trp(5-F)][Trp(5-F)]DHY[Aib]C-NH2; linker 1-10 via mXylylene): 100 to 1000 nM; `NCCCC[C@@H]1NC(=O)CCSCc2cccc(c2)CSC[C@@H](C(N)=O)NC(=O)[C@@H]2CCN2C(=O)[C@H](Cc2ccc(O)cc2)NC(=O)[C@H](Cc2cnc[nH]2)NC(=O)[C@H](CC(=O)O)NC(=O)[C@H](Cc2c[nH]c3ccc(F)cc23)NC(=O)[C@H](Cc2c[nH]c3ccc(F)cc23)NC(=O)CNC1=O` [Compound 207] ([Mpa]KG[Trp(5-F)][Trp(5-F)]DHY[Aze]C-NH2; linker 1-10 via mXylylene): 21000 to 50000 nM. Consider `C[C@@H]1NC(=O)CCSCc2cccc(c2)CSC[C@@H](C(N)=O)NC(=O)[C@@H]2CCCN2C(=O)[C@H](Cc2ccc(O)cc2)N(C)C(=O)[C@H](Cc2c[nH]cn2)NC(=O)[C@H](CC(=O)O)N(C)C(=O)[C@H](Cc2cn(C)c3ccccc23)N(C)C(=O)[C@H](Cc2c[nH]c3ccccc23)N(C)C(=O)CN(C)C1=O` [Compound 259] ([Mpa]A[Sar][NMeW][NMeTrp(1-Me)][NMeD]H[NMeY]PC-NH2; linker 1-10 via mXylylene), for which the concentration for half-maximal inhibition (IC50) lay in the range of 1000 to 12100 nM.

Turning to `COc1ccc(C[C@@H]2NC(=O)[C@H]([C@@H](C)OC)NC(=O)[C@@H]3CC/C=C\COc4cccc(c4)C[C@H](NC(=O)[C@@H](C)NC(=O)[C@H](C)NC(=O)CCSCc4cc(F)cc(c4)CSCCNC(=O)[C@]4(C)CCCN4C2=O)C(=O)N[C@@H](Cc2c[nH]c4ccc(F)cc24)C(=O)N3C)cc1` [Compound 505] (cyclo(A[dA][X25][Trp(5-F)][X42]T(Me)Y(Me)[αMeP][X3]); staple (Z) 3-5), the IC50 lay within 100 to 1000 nM. On to `NCCCC[C@@H]1NC(=O)CCSCc2cccc(c2)CSC[C@@H](C(N)=O)NC(=O)[C@@H]2C[C@@H](Cc3ccccc3)CN2C(=O)[C@H](Cc2ccc(O)cc2)NC(=O)[C@H](Cc2c[nH]cn2)NC(=O)[C@H](CC(=O)O)NC(=O)[C@H](Cc2c[nH]c3ccc(F)cc23)NC(=O)[C@H](Cc2c[nH]c3ccc(F)cc23)NC(=O)CNC1=O` [Compound 294] ([Mpa]KG[Trp(5-F)][Trp(5-F)]DHY[Pro(4R-Bn)]C-NH2; linker 1-10 via mXylylene), for which the IC50 was in the range of 100 to 1000 nM. Turning to `CC1(C)[C@@H]2[C@H]3C(=O)N[C@H](C(N)=O)CSCc4cccc(c4)CSCCC(=O)N[C@@H](CCCCN)C(=O)NCC(=O)N[C@@H](Cc4c[nH]c5ccc(F)cc45)C(=O)N[C@@H](Cc4c[nH]c5ccc(F)cc45)C(=O)N[C@@H](CC(=O)O)C(=O)N[C@@H](Cc4c[nH]cn4)C(=O)N[C@@H](Cc4ccc(O)cc4)C(=O)N3C[C@@H]21` [Compound 201] ([Mpa]KG[Trp(5-F)][Trp(5-F)]DHY[Pro(3R,4S-CMe2)]C-NH2; linker 1-10 via mXylylene), the IC50 lay within 1000 to 12100 nM. Then `C[C@H]1NC(=O)[C@H](CCCCN)NC(=O)CCSCc2cc(F)cc(c2)CSCCNC(=O)[C@]2(C)CCCN2C(=O)[C@H](Cc2ccc(O)cc2)NC(=O)[C@H](Cc2cnc[nH]2)NC(=O)[C@H](CC(=O)O)NC(=O)[C@H](Cc2c[nH]c3ccc(F)cc23)NC(=O)[C@H](Cc2c[nH]c3ccc(F)cc23)NC1=O` [Compound 289] (cyclo(DHY[αMeP][X3]K[dA][Trp(5-F)][Trp(5-F)])), with 21000 to 50000 nM; and `C[C@@]1(CCCCN)NC(=O)CCSCc2cccc(c2)CSC[C@@H](C(N)=O)NC(=O)[C@@H]2CCCN2C(=O)[C@H](Cc2ccc(O)cc2)NC(=O)[C@H](Cc2c[nH]cn2)NC(=O)[C@H](CC(=O)O)NC(=O)[C@H](Cc2c[nH]c3ccc(F)cc23)NC(=O)[C@H](Cc2c[nH]c3ccc(F)cc23)NC(=O)CNC1=O` [Compound 214] ([Mpa][αMeK]G[Trp(5-F)][Trp(5-F)]DHYPC-NH2; linker 1-10 via mXylylene), with 1000 to 12100 nM; and `C[C@H]1NC(=O)[C@H](CCCCN)NC(=O)CCSCc2cccc(c2)CSCCNC(=O)[C@]2(C)CCCN2C(=O)[C@H](Cc2c[nH]c3ncccc23)NC(=O)[C@H](Cc2cnc[nH]2)NC(=O)[C@H](CC(=O)O)NC(=O)[C@H](Cc2c[nH]c3ccc(F)cc23)NC(=O)[C@H](Cc2c[nH]c3ccc(F)cc23)NC1=O` [Compound 247] (cyclo(DH[Trp(7-aza)][αMeP][X4]K[dA][Trp(5-F)][Trp(5-F)])), with 100 to 1000 nM. Next, `COc1cc2cc(c1)CSC[C@@H](C(N)=O)NC(=O)[C@@H]1CCCN1C(=O)[C@H](Cc1ccc(O)cc1)NC(=O)[C@H](Cc1c[nH]cn1)NC(=O)[C@H](CC(=O)O)NC(=O)[C@H](Cc1c[nH]c3ccc(F)cc13)NC(=O)[C@H](Cc1c[nH]c3ccc(F)cc13)NC(=O)CNC(=O)[C@H](CCCCN)NC(=O)CCSC2` [Compound 197] ([Mpa]KG[Trp(5-F)][Trp(5-F)]DHYPC-NH2; linker 1-10 via X35): 21000 to 50000 nM; `CN1CC(=O)N[C@@H](Cc2c[nH]c3ccccc23)C(=O)N[C@@H](Cc2c[nH]c3ccccc23)C(=O)N(C)[C@@H](CC(=O)O)C(=O)N[C@@H](Cc2cnc[nH]2)C(=O)N(C)[C@@H](Cc2ccc(O)cc2)C(=O)N2CCC[C@H]2C(=O)N[C@H](C(N)=O)CSCc2cccc(c2)CSCCC(=O)N[C@@H](CCCCN)C1=O` [Compound 221] ([Mpa]K[Sar]WW[NMeD]H[NMeY]PC-NH2; linker 1-10 via mXylylene): 21000 to 50000 nM; `CCC[C@H](NC(C)=O)C(=O)N[C@H](Cc1c[nH]cn1)C(=O)N(C)[C@@H](Cc1ccc(F)cc1)C(=O)N[C@H]1CSCc2cccc(c2)CSC[C@@H](C(N)=O)NC(=O)[C@@H]2CCCN2C(=O)[C@H](Cc2ccc(O)cc2)NC(=O)[C@H](Cc2c[nH]cn2)NC(=O)[C@H](CC(=O)O)NC(=O)[C@H](Cc2c[nH]c3ccc(F)cc23)NC(=O)[C@H](Cc2c[nH]c3ccc(F)cc23)NC(=O)CNC(=O)[C@H](CCCCN)NC1=O` [Compound 144] (Ac-[Nva][dH][NMePhe(4-F)]CKG[Trp(5-F)][Trp(5-F)]DHYPC-NH2; linker 4-13 via mXylylene): 1000 to 12100 nM. Next, `CC1(C)NC(=O)[C@H](Cc2cnc[nH]2)NC(=O)[C@H](CC(=O)O)NC(=O)[C@H](Cc2c[nH]c3ccc(F)cc23)NC(=O)[C@H](Cc2c[nH]c3ccc(F)cc23)NC(=O)CNC(=O)[C@H](CCCCN)NC(=O)CCSCc2cccc(c2)CSC[C@@H](C(N)=O)NC(=O)[C@@H]2CCCN2C1=O` [Compound 318] ([Mpa]KG[Trp(5-F)][Trp(5-F)]DH[Aib]PC-NH2; linker 1-10 via mXylylene): 0.1 to 100 nM.

For `C[C@H]1NC(=O)[C@H](Cc2c[nH]c3ccc(F)cc23)NC(=O)[C@H](Cc2c[nH]c3ccc(F)cc23)NC(=O)CNC(=O)[C@H](CCCCN)NC(=O)CCSCc2cccc(c2)CSC[C@@H](C(N)=O)NC(=O)[C@]2(C)CCCN2C(=O)[C@H](Cc2ccc(O)cc2)NC(=O)[C@H](Cc2cnc[nH]2)NC1=O` [Compound 032] ([Mpa]KG[Trp(5-F)][Trp(5-F)][dA]HY[αMeP]C-NH2; linker 1-10 via mXylylene), the IC50 lay in the range of 100 to 1000 nM. Then `C[C@H]1NC(=O)[C@H](CC(=O)O)NC(=O)[C@H](Cc2c[nH]c3ccc(F)cc23)NC(=O)[C@H](Cc2c[nH]c3ccc(F)cc23)NC(=O)CNC(=O)[C@H](CCCCN)NC(=O)CCSCc2cccc(c2)CSC[C@@H](C(N)=O)NC(=O)[C@]2(C)CCCN2C(=O)[C@H](Cc2ccc(O)cc2)NC1=O` [Compound 033] ([Mpa]KG[Trp(5-F)][Trp(5-F)]D[dA]Y[αMeP]C-NH2; linker 1-10 via mXylylene), with 1000 to 12100 nM; and `NCCCC[C@@H]1NC(=O)CCSCc2cccc(c2)CSC[C@@H](C(N)=O)NC(=O)[C@@H]2CCCN2C(=O)[C@H](Cc2ccc(O)cc2)NC(=O)[C@H](Cc2c[nH]cn2)NC(=O)[C@H](CC(=O)O)NC(=O)[C@H](Cc2c[nH]c3ccc(F)cc23)NC(=O)[C@H](CCc2ccccc2)NC(=O)CNC1=O` [Compound 211] ([Mpa]KG[hPhe][Trp(5-F)]DHYPC-NH2; linker 1-10 via mXylylene), with 1000 to 12100 nM.

As for `CCCCCCCCCCCCCCCC(=O)N[C@@H](CCC(=O)N[C@@H](CCC(=O)NCCCC[C@@H]1NC(=O)CCSCc2cccc(c2)CSC[C@@H](C(N)=O)NC(=O)[C@]2(C)CCCN2C(=O)[C@H](Cc2ccc(O)cc2)NC(=O)[C@H](Cc2c[nH]cn2)NC(=O)[C@H](CC(=O)O)NC(=O)[C@H](Cc2c[nH]c3ccc(F)cc23)NC(=O)[C@H](Cc2c[nH]c3ccc(F)cc23)NC(=O)CNC1=O)C(=O)O)C(=O)O` [Compound 283] ([Mpa]K([γGlu-γGlu-Palmitoyl])G[Trp(5-F)][Trp(5-F)]DHY[αMeP]C-NH2; linker 1-10 via mXylylene), the IC50 fell in the range of 21000 to 50000 nM. Next, `NCCCC[C@@H]1NC(=O)CCCn2cc(nn2)CC[C@@H](C(N)=O)NC(=O)[C@@H]2CCCN2C(=O)[C@H](Cc2ccc(O)cc2)NC(=O)[C@H](Cc2c[nH]cn2)NC(=O)[C@H](CC(=O)O)NC(=O)[C@H](Cc2c[nH]c3ccc(F)cc23)NC(=O)[C@H](Cc2c[nH]c3ccc(F)cc23)NC(=O)CNC1=O` [Compound 186]: 100 to 1000 nM.

The record behind these values is patent publication US11530244B2, “Cyclic polypeptides for PCSK9 inhibition” (priority 2018, dated 2022).
